The text below walks through data of patent US6518480B1 (priority 1996, dated 2003).

Assay [1] concerns OR2. It counts as cell-based, human.
Assay [2] addresses OR2 (Homo sapiens, UniProt P41145, G198V/DELINS201-226[…]/E297Q, form not given). It counts as cell-based. The settings on record: read-out: EC50, signaling by OR2; signaling by OR2.
For assay [3], the system named is OR2. It counts as binding, human.
For assay [4], the target named is T1, Wild-type KOR (Homo sapiens, UniProt P41145).
T1 construct: expressed in transfected cells; host or cells: COS-7 and CHO-KI (for OR1 and OR2)
T1 sequence (P41145 whole entry): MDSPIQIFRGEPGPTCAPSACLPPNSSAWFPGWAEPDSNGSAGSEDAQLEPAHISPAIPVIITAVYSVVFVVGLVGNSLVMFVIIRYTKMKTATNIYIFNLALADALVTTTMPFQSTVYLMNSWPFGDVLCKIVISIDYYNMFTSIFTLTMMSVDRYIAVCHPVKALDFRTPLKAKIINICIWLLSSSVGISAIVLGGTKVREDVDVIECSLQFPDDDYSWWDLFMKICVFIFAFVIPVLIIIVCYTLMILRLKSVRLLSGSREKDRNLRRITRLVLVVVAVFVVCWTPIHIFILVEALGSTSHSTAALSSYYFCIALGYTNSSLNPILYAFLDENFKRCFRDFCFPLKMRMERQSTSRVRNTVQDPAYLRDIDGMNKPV
Put plainly: biochemical. The class given is binding.

The target in assay [5] is T1, Wild-type KOR. Put plainly: Signaling (activation of G protein-mediated signals, adenylyl cyclase inhibition) by wild-type KOR. It counts as cell-based.
For assay [6], the system named is OR1. The class given is binding, human.
Assay [7] deals with OR1. As to the kind of experiment: Signaling (activation of G protein-mediated signals, adenylyl cyclase inhibition) by OR1. It counts as cell-based, human. The following applies: relative to signal detected with wild-type KOR.
Assay [8] has as its target OR1 (Homo sapiens, UniProt P41145, G198V/DELINS201-226[…], form not given). Described as above. The class given is cell-based.
[9] abbreviates: relative to signal detected with wild-type KOR.

Sequence of OR1 (Homo sapiens, UniProt P41145, G198V/DELINS201-226[…], form not given) (P41145 with tags, fused parts or gaps DELINS198-226[withheld], form open): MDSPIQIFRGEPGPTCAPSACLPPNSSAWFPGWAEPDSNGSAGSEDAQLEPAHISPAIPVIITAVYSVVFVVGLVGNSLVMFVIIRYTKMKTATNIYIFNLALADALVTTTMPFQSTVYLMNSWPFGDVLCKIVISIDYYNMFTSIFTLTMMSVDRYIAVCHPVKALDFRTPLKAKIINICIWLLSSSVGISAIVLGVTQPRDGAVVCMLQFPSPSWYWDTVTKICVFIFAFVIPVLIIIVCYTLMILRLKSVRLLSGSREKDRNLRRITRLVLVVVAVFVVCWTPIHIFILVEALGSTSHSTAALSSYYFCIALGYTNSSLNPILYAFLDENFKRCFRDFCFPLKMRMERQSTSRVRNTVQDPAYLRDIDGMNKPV
Sequence of OR2 (Homo sapiens, UniProt P41145, G198V/DELINS201-226[…]/E297Q, form not given) (P41145 with tags, fused parts or gaps DELINS198-226[withheld]/E297Q, form open): as the sequence (P41145 with tags, fused parts or gaps DELINS198-226[withheld], form open) above, with E294Q counted along it

The EC50 is the concentration that produces a half-maximal response. What is called Ki is the equilibrium dissociation constant of an inhibitor or competing ligand from its target. Higher therefore signals weaker binding. For the compound `CCC12CCN(CC3(O)CC3)C(Cc3ccc(O)cc31)C2(C)C` (stereo not drawn) [Bremazocine, bremazocine], the “Fold decrease in signaling, OR2” value with OR2 [1] (setting [9]) was found to be 5.17 fold. The “Biochemical Signal, decrease (summary), OR2” value with OR2 [1] (summary table, ↓ = decrease versus wild-type KOR) is reported as “↓5x”. Further, in the assay with OR2 [1] (times more ligand than for wild type KOR), the “Amount of ligand required to activate the biochemical signal at OR2 compared to wild-type KOR” value was “about 5 times”. Further, at OR2 [2], the EC50 stood at 0.34 nM. Further, in the assay with OR2 [3], the “Change in binding affinity of OR2 relative to native human KOR” value is listed as “no change” and the “Fold decrease in binding, OR2” value was 1.2 fold. Further, at Wild-type KOR [4], the “Fold decrease in binding, Wild-type KOR” value is listed as 1 fold and the Ki was found to be 0.038 nM. The compound further gave an EC50 at Wild-type KOR [5] of 0.067 nM. In addition, the “Fold decrease in signaling, Wild-type KOR” value on Wild-type KOR [5] (setting [9]) stood at 1 fold. In the assay with OR1 [6], the “Change in binding affinity of OR1 relative to native human KOR” value is “no significant change” and the “Fold decrease in binding, OR1” value worked out at 1.7 fold. Besides, the “Fold decrease in signaling, OR1” value in the assay with OR1 [7] is given as 1 fold. In addition, at OR1 [8] (dynorphin only at high concentrations), the “Inhibition of adenylyl cyclase by OR1 in response to ligand” value is on record as “inhibits adenylyl cyclase”. At OR1 [8] (read-out: EC50, signaling by OR1, signaling by OR1), the EC50 stood at 0.068 nM.
